# Assay results taken from patent publication EP0846119B1, “THIENOPYRIMIDINE DERIVATIVES, THEIR PRODUCTION AND USE AS ENDOTHELIN ANTAGONISTS” (Takeda Chemical Industries, Ltd., priority 1995, dated 1997).
# Like-named read-outs stand apart in the source and are kept apart here.
# Columns and labels:
# [1] = test system: coronary vein where ETB is expressed; experiment: Inhibition Test on coronary vein where ETB is expressed (S6c-induced constriction of ring samples); details: Sus scrofa, porcine coronary vein ring, pre-treatment 30 minutes, relative to vehicle group, read-out: % inhibition (MEAN ± S.E.M.) (n=) vein (S6c 1 nM); for inhibition at 0.1 µM: compound 0.1 µM; for inhibition at 10 µM: compound 10 µM
# Method: Inhibition Test on coronary vein where ETB is expressed:
# 3-mm ring samples for vehicle group and drug-treating group were prepared by removing fat and connective tissue from coronary vein enucleated from porcine heart and obtained from the adjacent portions thereof. The samples, hanging in Magnus tube filled with Krebs solution, were stabilized for 90 minutes under 0.5 g static tension. After subjecting the samples to constriction for 10 minutes by potassium chloride (KCl) (60 mM) to obtain the maximum reaction, the samples were washed and stabilized for 60 minutes. After pre-treating compound obtained in Example 5 or Compound 16 of Example 11 or vehicle (H2O) for 30 minutes, S6c (1 nM) (S6c: sarafotoxin S6c, peptide type snake toxin consisting of 21 amino acids, it is useful for the selective agonist to ETB receptor owing to the similarity of its structure to endothelin) was added to observe the maximum constriction.
# The constriction efficiency (% KCl) of S6c was calculated as a relative value to KCl constriction of each sample which was regarded as 100%. Further, the inhibiting efficiency was calculated from the constriction efficiency of the drug-treating group calculated as a relative value to the constriction of the vehicle group which was regarded as 100%.
# [2] = molecular target: T1, human endothelin-A (ETA) receptors (Homo sapiens, UniProt P25101); experiment: Binding Test to ETA receptor expressed in an insect cell Sf9 ([125I]endothelin-1 displacement)
# T1 construct: made in house; host or cells: Sf9 insect cells (membrane fractions)
# T1 sequence (P25101 21-427): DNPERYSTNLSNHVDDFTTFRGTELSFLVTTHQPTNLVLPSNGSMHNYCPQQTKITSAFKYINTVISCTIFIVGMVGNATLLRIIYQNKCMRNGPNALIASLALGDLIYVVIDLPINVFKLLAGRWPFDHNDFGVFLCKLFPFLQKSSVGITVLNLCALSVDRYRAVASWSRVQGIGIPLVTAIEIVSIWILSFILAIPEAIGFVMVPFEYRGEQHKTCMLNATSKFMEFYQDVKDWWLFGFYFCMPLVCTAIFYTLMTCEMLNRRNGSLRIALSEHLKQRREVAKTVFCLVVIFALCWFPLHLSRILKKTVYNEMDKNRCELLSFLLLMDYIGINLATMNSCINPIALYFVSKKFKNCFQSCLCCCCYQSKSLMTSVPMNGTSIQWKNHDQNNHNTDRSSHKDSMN
# Method: Binding Test to ETA receptor expressed in an insect cell Sf9:
# (§1) Endothelin (ET) receptors were prepared by diluting fractions of insect cell (Sf9) membrane having human endothelin-A (ETA) receptors expressed, with an assay buffer {20 mM Tris-HCl, 2 mM EGTA (ethyleneglycol bls(2-aminoethylether) tetra acetic acid), 5 mM magnesium acetate, 0.1% BSA (bovine serum albumin), 0.03% NaN3, 0.5 mM PMSF (phenyl methyl sulfonyl fluoride), 20 µg/ml leupeptin, 4 µg/ml E-64 (products of the Peptide Institute, Japan), 1 µg/ml pepstatin, (pH 7.2)} respectively in a concentration of 1.4 µg/ml in the former case and 0.7 µg/ml in the latte case.
# To 100 µl of each portion was added 5 nM[^125I] endothelin-1 (2 µl). A dimethylsulfoxide solution (3 µl) of the test compound was added thereto and incubated at 25°C for 60 minutes.
# And, to determine the maximum binding amount (B0) and non-specific binding amount (NSB), lots to which a dimethyl sulfoxide solution (3 µl) or a dimethyl sulfoxide solution (3 µl) containing endothelin-1 (10^-3M) had been added, were also incubated.
# These lots were supplemented with 0.05% CHAPS(3-[(3-chloroamidopropyl)dimethylammonio]-1-propanesulfonate)-assay buffer (1.5 ml), subjected to filtration through a glass fiber filter GF/F (trade name; product of Whatman Ltd. (England)), and then washed with the same buffer (1.5 ml)).
# (§2) Radioactivity on the filter was counted in a gamma-counter to determine the Percent Maximum Binding (PMB) in accordance with the aforesaid calculation formula. The concentration causing PMB=50% was determined as IC50 value.
# [3] = molecular target: T2, human endothelin-B (ETB) receptors (Homo sapiens, UniProt P24530); experiment: Binding Test to ETB receptor expressed in an insect cell Sf9 ([125I]endothelin-1 displacement)
# T2 construct: made in house; host or cells: Sf9 insect cells (membrane fractions)
# T2 sequence (P24530 27-442): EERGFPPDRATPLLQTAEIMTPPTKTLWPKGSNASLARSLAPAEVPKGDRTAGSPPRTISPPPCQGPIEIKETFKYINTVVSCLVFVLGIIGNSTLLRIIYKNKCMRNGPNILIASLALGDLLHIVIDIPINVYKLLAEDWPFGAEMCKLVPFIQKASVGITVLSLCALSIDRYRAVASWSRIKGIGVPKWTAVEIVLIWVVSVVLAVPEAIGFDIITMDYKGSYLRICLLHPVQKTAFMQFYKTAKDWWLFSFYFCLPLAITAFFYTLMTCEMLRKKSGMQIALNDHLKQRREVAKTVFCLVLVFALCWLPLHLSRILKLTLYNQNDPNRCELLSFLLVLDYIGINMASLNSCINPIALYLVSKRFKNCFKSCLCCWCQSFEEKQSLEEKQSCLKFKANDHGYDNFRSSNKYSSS
# Method: Binding Test to ETB receptor expressed in an insect cell Sf9:
# as §1, with “endothelin-B (ETB)” for “endothelin-A (ETA)”, “{200” for “{20”, “(ethylenegiycol bis(2-aminoethylether)” for “(ethyleneglycol bls(2-aminoethylether)”, “PMSF(phenyl” for “PMSF (phenyl”, “Institute),” for “Institute, Japan),”, “latter” for “latte”
# To 100 µl of each portion was added 5 nM[^125I] endothelin-1 (2 µl). A dimethylsulfoxide solution (3 µl) of the sample was added thereto and incubated at 25°C fpr 60 minutes.
# And, to determine the maximum binding amount (B0) and non-specific binding amount (NSB), lots to which a dimethyl sulfoxide solution (3 µl) or a dimethyl sulfoxide solution (3 µl) containing endothelin-1 (10^-5M) had been added, were also incubated.
# These lots were supplemented with 0.05% CHAPS(3-[(3-chloroamidopropyl)dimethylammonio]-1-propanesulfonate)-assay buffer (1.5 ml), subjected to filtration through a glass fiber filter GF/F (trade name; product of Whatman Ltd. (England)), and then washed with the same buffer (1.5 ml).
# as §2
# [4] = Sf9 membrane fractions, [125I]endothelin-1, 25°C, 60 minutes, concentration causing PMB=50%, read-out: IC50 value: µM Human endotherin-A receptor
# [5] = Table 5, values recur in Table 7, read-out: Binding IC50 (µM) ETA
# [6] = Sf9 membrane fractions, [125I]endothelin-1, 25°C, 60 minutes, concentration causing PMB=50%, read-out: IC50 value: µM Human endotherin-B receptor
# [7] = Table 6, values recur in Table 8, read-out: Binding IC50 (µM) ETB
SMILES,inhibition at 0.1 µM [1],inhibition at 10 µM [1],"IC50 [2, 4]","IC50 [2, 5]","IC50 [3, 6]","IC50 [3, 7]"
"CCS(=O)(=O)NCc1c(-c2ccc(OCOC)cc2)sc2c1c(=O)n(CC(=O)O)c(=O)n2Cc1ccccc1SC [11(16), 2,4(1H,3H)-Dioxo-6-(4-methoxymethoxyphenyl)-1-(2-methylthiobenzyl)-5-(ethanesulfonamidomethyl)thieno[2,3-d]pyrimidine-3-acetic acid]",53.3 ± 4.4%,98 ± 1.1%,0.0061 µM,0.0061 µM,0.054 µM,0.054 µM
"COCOc1ccc(-c2sc3c(c2CNS(C)(=O)=O)c(=O)n(CC(=O)O)c(=O)n3Cc2ccccc2SC)cc1 [Example 5, 2,4(1H,3H)-dioxo-6-(4-methoxymethoxyphenyl)-1-(2-methylthiobenzyl)-5-(methanesulfonamidomethyl)thieno[2,3-d]pyrimidine-3-aretic acid]",73.4 ± 3.1%,100%,0.011 µM,0.0076 µM,0.2 µM,0.1 µM
